The record followed here is patent US20190117547A1, “COSMETIC COMPOSITIONS COMPRISING SCLAREOLIDE” (SYMRISE AG, priority 2016, published 2019).

Common to all, as to format: cell-based
Test [1] has as its system Human epidermal melanoma cells A375. The test is described as follows: Basal melanin formation in vitro. The following applies: for melanin: basal (no irradiation). The protocol:
Human epidermal melanoma cells A375 were cultured in 6-well plates. […] 48 h prior to and past to the irradiation the cells were treated with test compounds in non-cytotoxic concentrations. Melanocytes were lysed in a solution of NaOH. Melanin was quantified by measurement of absorbance at 405 nm and calculation based on a melanin standard curve.

Test [2] shares this test system. The experiment in a line: Visible light induced hyperpigmentation in vitro. The following applies: for Inhibition vs visible light induced / melanin: visible light 480 J/cm2. On the procedure:
Human epidermal melanoma cells A375 were cultured in 6-well plates. The cells were exposed to visible light (480 J/cm2) with Hydrosun 750 equipped with KG1 filter. 48 h prior to and past to the irradiation the cells were treated with test compounds in non-cytotoxic concentrations. Melanocytes were lysed in a solution of NaOH. Melanin was quantified by measurement of absorbance at 405 nm and calculation based on a melanin standard curve.

Test [3] deals with ex vivo human skin explants. The experiment in a line: Melanin formation after visible light irradiation on ex vivo human skin. The following applies: for Inhibition vs Placebo: skin explants, visible light 480 J/cm2; for % of melanin: topical on skin explants, visible light 480 J/cm2, Fontana-Masson stain. On the procedure: The below formulations were applied on ex vivo human skin explants from abdominal surgery of a donor with phototype IV (Fitzpatrick scale). 48 h after the formulations were removed with a cotton pad. Skin explants were exposed to visible light (480 J/cm2) with Hydrosun 750 equipped with KG1 filter. Formulations were reapplied afterwards. 48 h later skin sections were prepared and melanin was stained by Fontana-Masson stain. Quantification of melanin was done by image analysis.

The subject of a further test is EDN1(endothelin 1). The experiment in a line: UVB induced gene expression (RTq PCR), EDN1. As to conditions: HaCaT cells, 50 μM Sclareolide, 20 mJ/cm^2 UVB, 24 hours; normalized to HPRT1 (UVB alone 22.7). On the procedure:
(§1) HaCaT cells are seeded into a 12-well plate with 2.0×10^5 cells/well. After incubation over night the test compound (50 μM Sclareolide) is added to the cells and the plate is incubated for two more hours. Then cells are washed with PBS and irradiated with 20 mJ/cm^2 UVB (UVITEC Cambridge, 312 nm). PBS is removed and medium (control and with test compound) added. Cells are incubated for 24 hours. RNA is extracted and purified using the RNeasy kit (Qiagen) according to the manufacturer's instructions. The RNA concentration is determined with a photometer (Eppendorf) and 2 μg are used for reverse transcription, that is performed with the TaqMan® MicroRNACells-to-CT™ Kit (Ambion) like described in the user manual. Quantitative real time PCR is performed using the Applied Biosystems StepOne™ with customized TaqMan® Array Fast Plates with following primers: HPRT1 (hypoxanthine phosphoribosyltransferase 1) as housekeeping gene, EDN1(endothelin 1), CXCL1 (C—X—C motif chemokine ligand 1), IL6 (interleukin 6) and IL8 (C—X—C motif chemokine ligand 8). Target gene transcript levels are normalized to the HPRT1 transcript level and the relative transcript changes are calculated using the RQ=2-ΔΔCt method.

Test [4] has as its system CXCL1 (C—X—C motif chemokine ligand 1). The experiment in a line: UVB induced gene expression (RTq PCR), CXCL1. The following applies: HaCaT cells, 50 μM Sclareolide, 20 mJ/cm^2 UVB, 24 hours; normalized to HPRT1 (UVB alone 5.4). The protocol:
as §1

For test [5], the system named is IL8 (C—X—C motif chemokine ligand 8). The experiment in a line: UVB induced gene expression (RTq PCR), IL8. As to conditions: HaCaT cells, 50 μM Sclareolide, 20 mJ/cm^2 UVB, 24 hours; normalized to HPRT1 (UVB alone 17.9). The protocol: as §1
Another test concerns IL6 (interleukin 6). The experiment in a line: UVB induced gene expression (RTq PCR), IL6. As to conditions: HaCaT cells, 50 μM Sclareolide, 20 mJ/cm^2 UVB, 24 hours; normalized to HPRT1 (UVB alone 8.4). The protocol:
as §1

Test [6] relates to genes well-known for the induction of hyperpigmentation. The experiment in a line: UVB induced gene expression (RTq PCR), overall statement. As to conditions: HaCaT cells, 50 μM Sclareolide, summary in words. On the procedure: as §1
The mark [7] stands for this setting: 0.05% sclareolide formulation (C).
Setting [8] is: 0.2% sclareolide formulation (B).

For the compound `CC1(C)CCC[C@]2(C)C3CC(=O)O[C@]3(C)CC[C@@H]12` (stereo partly drawn) [sclareolide, (3aR,5aS,9aS,9bR)-deca hydro-3a,6,6,9a-tetramethylnaphtha[2,1-b]furan-2(1H)-one], the melanin was determined as 0.7775 ± 0.0412 µg in test [1] (3.16 μM sclareolide); 0.6554 ± 0.0408 µg in test [1] (10 μM sclareolide); 0.8851 ± 0.0579 µg in test [1] (31.6 μM sclareolide); 0.8784 ± 0.0293 µg in test [2] (3.16 μM sclareolide); 0.6306 ± 0.0675 µg in test [2] (10 μM sclareolide); 0.6106 ± 0.0658 µg in test [2] (31.6 μM sclareolide). Moreover, the “effect on basal melanin formation” value in test [1] (summary in words) is recorded as “no effect”. In addition, the results for the “Inhibition vs visible light induced” value in test [2] (3.16 μM sclareolide), in test [2] (10 μM sclareolide) and in test [2] (31.6 μM sclareolide) were 18%, 67% and 70%, respectively. Moreover, the “inhibition of visible light induced hyperpigmentation” value in test [2] (summary in words) is reported as “significantly inhibits”. The “Inhibition vs Placebo” value in test [3] (setting [7]) is listed as 1.2%; in test [3] (setting [8]) it was 32.4%. Moreover, the “% of melanin” value worked out at 61.33 ± 2.2% in test [3] (setting [7]) and 52.46 ± 2.9% in test [3] (setting [8]). The “RQ EDN1” value with EDN1(endothelin 1) is recorded as 11.9. For the same compound, the “RQ CXCL1” value in test [4] is 2.8. Further, in test [5], the “RQ IL8” value was 10.3. Moreover, the “RQ IL6” value in the test on IL6 (interleukin 6) was 5.7. Moreover, the “inhibition of UVB induced upregulation of genes” value in test [6] was “inhibits”.
